Experimental data taken from patent publication US20210355104A1, “ADENOSINE RECEPTOR BINDING COMPOUNDS” (Nikang Therapeuticsm Inc., priority 2018, published 2021).
Several values for one entry are separate records, joined by “and”; a condition that tells them apart may be missing. Equal entries are not always repeated.

Tests used:
Adenosine A2A receptor [1] = target: T1, Adenosine A2A receptor (Homo sapiens, UniProt P29274); assay: cAMP assay in 293A cells stably expressing the adenosine A2A receptor (CGS21680 stimulation, HTRF); type: cell-based; parameters: expressed in transfected cells; host or cells: 293A cells (Invitrogen, Cat# R705-07) infected with A2A-expressing lentivirus (custom packaged by Biosettia), puromycin selected; conditions: 293A-A2AR cells, 0.1% BSA
Adenosine A2A receptor [2] = target: T1, Adenosine A2A receptor; assay: Adenosine A2A receptor competitive binding assay (Tag-lite HTRF); conditions: Tag-lite adenosine A2A receptor ligand binding
Outline: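 Tag-lite HTRF competition: donor-labelled cells expressing human A2A were mixed with serially diluted compounds (DMSO 0.6% in dilutions) and red fluorescent A2A antagonist ligand (60 nM stock). Incubated 2 h at room temperature before HTRF readout.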

[3] = 1 uM CGS, values separated by / are repeat determinations, read-out: cAMP (nM) 0.1% BSA, 1 uM CGS
[4] = 2 h room temperature, values separated by / are repeat determinations
[5] = 8 nM CGS, read-out: cAMP (nM) 0.1% BSA, 8 nM CGS
[6] = 8 nM CGS, values separated by / are repeat determinations, read-out: cAMP (nM) 0.1% BSA, 8 nM CGS

T1 sequence (P29274 whole entry): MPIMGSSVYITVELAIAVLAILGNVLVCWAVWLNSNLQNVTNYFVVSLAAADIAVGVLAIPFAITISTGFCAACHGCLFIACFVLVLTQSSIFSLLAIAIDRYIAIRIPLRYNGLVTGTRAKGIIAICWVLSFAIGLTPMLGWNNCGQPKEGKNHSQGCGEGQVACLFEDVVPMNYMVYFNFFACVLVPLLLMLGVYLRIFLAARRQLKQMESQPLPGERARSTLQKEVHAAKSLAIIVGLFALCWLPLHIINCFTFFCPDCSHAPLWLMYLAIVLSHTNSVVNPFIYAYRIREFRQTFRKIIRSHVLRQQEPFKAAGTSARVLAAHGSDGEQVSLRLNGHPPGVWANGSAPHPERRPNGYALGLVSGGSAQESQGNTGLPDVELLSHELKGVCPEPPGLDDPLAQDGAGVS

SMILES	IC50 (Adenosine A2A receptor [1]; [3])	IC50 (Adenosine A2A receptor [2]; [4])	IC50 (Adenosine A2A receptor [1]; [5]) [nM]	IC50 (Adenosine A2A receptor [2]; HTRF)	IC50 (Adenosine A2A receptor [1]; [6])	IC50 (Adenosine A2A receptor [1]; 1 uM CGS, read-out: cAMP (nM) 0.1% BSA, 1 uM CGS) [nM]
Cc1cc(-c2c(OCCN(C)c3nccc(N)n3)nc(N)nc2-c2ccc(F)cc2)cc(C(F)F)n1 [Example 147, N^2-(2-((2-amino-5-(2-(difluoromethyl)-6-methylpyridin-4-yl)-6-(4-fluorophenyl)pyrimidin-4-yl)oxy)ethyl)-N^2-methylpyrimidine-2,4-diamine]	5460 nM	13 nM				
Cc1cc(-c2c(OCCOc3ccnc(N(C)CCO)c3)nc(N)nc2-c2ccc(F)cc2)cc(C(F)F)n1 [Example 212, 2-((4-(2-((2-amino-5-(2-(difluoromethyl)-6-methylpyridin-4-yl)-6-(4-fluorophenyl)pyrimidin-4-yl)oxy)ethoxy)pyridin-2-yl)(methyl)amino)ethan-1-ol]			62	174 nM		
CCN(CCOc1nc(N)nc(-c2ccc(F)cc2)c1-c1cc(C)nc(C(F)F)c1)c1ncccn1 [Example 146, 5-(2-(difluoromethyl)-6-methylpyridin-4-yl)-4-(2-(ethyl(pyrimidin-2-yl)amino)ethoxy)-6-(4-fluorophenyl)pyrimidin-2-amine]		4 nM			5.6 nM	
CCN(C(=O)COc1nc(N)nc(-c2ccc(F)cc2)c1-c1cc(C)nc(C(F)F)c1)c1ccccn1 [Example 117, 2-((2-amino-5-(2-(difluoromethyl)-6-methylpyridin-4-yl)-6-(4-fluorophenyl)pyrimidin-4-yl)oxy)-N-ethyl-N-(pyridin-2-yl)acetamide]		39.4 nM			27 nM	
Cc1cc(-c2c(OCc3cccc(CO[C@H]4CCOC4)n3)nc(N)nc2-c2ccccc2)cc(C(F)(F)F)n1 [Example 5, (S)-5-(2-methyl-6-(trifluoromethyl)pyridin-4-yl)-4-phenyl-6-((6-(((tetrahydrofuran-3-yl)oxy)methyl)pyridin-2-yl)methoxy)pyrimidin-2-amine]		8.97 nM			11.5 nM	
Cc1cc(-c2c(O[C@@H](C)CO)nc(N)nc2-c2ccc(F)cc2)cc(C(F)F)n1 [Example 76, (S)-2-((2-amino-5-(2-(difluoromethyl)-6-methylpyridin-4-yl)-6-(4-fluorophenyl)pyrimidin-4-yl)oxy)propan-1-ol]		19 nM			3.2 nM	
CCn1ccc(COc2nc(N)nc(-c3ccc(F)cc3)c2-c2cc(C)nc(C(F)F)c2)n1 [Example 228, 5-(2-(difluoromethyl)-6-methylpyridin-4-yl)-4-((1-ethyl-1H-pyrazol-3-yl)methoxy)-6-(4-fluorophenyl)pyrimidin-2-amine]			0.9	2.5 nM and 3.6 nM		162
Cc1cc(-c2c(OCCNS(N)(=O)=O)nc(N)nc2-c2ccc(F)cc2)cc(C(F)F)n1 [Example 59]	663 nM and 394 nM	1.8 nM and 7.8 nM			2.2 nM and 1.3 nM	
CCN(CC(C)O)C(=O)COc1nc(N)nc(-c2ccc(F)cc2)c1-c1cc(C)nc(C(F)F)c1 (stereo not shown) [Example 198, 2-((2-amino-5-(2-(difluoromethyl)-6-methylpyridin-4-yl)-6-(4-fluorophenyl)pyrimidin-4-yl)oxy)-N-ethyl-N-(2-hydroxypropyl)acetamide]			10	14.9 nM		
Cc1cc(-c2c(O[C@H](C)CO)nc(N)nc2-c2ccc(F)cc2)cc(C(F)F)n1 [Example 73, (R)-2-((2-amino-5-(2-(difluoromethyl)-6-methylpyridin-4-yl)-6-(4-fluorophenyl)pyrimidin-4-yl)oxy)propan-1-ol]		25 nM			3.6 nM	
Cc1cc(-c2c(OCC3(F)CCOCC3)nc(N)nc2-c2ccc(F)cc2)cc(C(F)F)n1 [Example 102, 5-(2-(difluoromethyl)-6-methylpyridin-4-yl)-4-(4-fluorophenyl)-6-((4-fluorotetrahydro-2H-pyran-4-yl)methoxy)pyrimidin-2-amine]	10 nM	0.83 nM				
Cc1cc(-c2c(OCC(=O)O)nc(N)nc2-c2ccc(F)cc2)cc(C(F)F)n1 [Example 71, 2-((2-amino-5-(2-(difluoromethyl)-6-methylpyridin-4-yl)-6-(4-fluorophenyl)pyrimidin-4-yl)oxy)acetic acid]		> 1000 nM			> 1000 nM	
Cc1cc(-c2c(OCCNS(N)(=O)=O)nc(N)nc2-c2ccccc2)cc(C(F)(F)F)n1 [Example 112]		6.7 nM			3.1 nM	
Cc1cc(-c2c(OCc3nccn3CC3CC3)nc(N)nc2-c2ccc(F)cc2)cc(C(F)F)n1 [Example 177, 4-((1-(cyclopropylmethyl)-1H-imidazol-2-yl)methoxy)-5-(2-(difluoromethyl)-6-methylpyridin-4-yl)-6-(4-fluorophenyl)pyrimidin-2-amine]	271 nM	0.2 nM			2.6 nM and 2.9 nM	
Cc1cc(-c2c(OCc3nccn3CC(C)C)nc(N)nc2-c2ccc(F)cc2)cc(C(F)F)n1 [Example 176, 5-(2-(difluoromethyl)-6-methylpyridin-4-yl)-4-(4-fluorophenyl)-6-((1-isobutyl-1H-imidazol-2-yl)methoxy)pyrimidin-2-amine]		3.6 nM			7.9 nM	
Cc1cc(-c2c(OCC(=O)NCC(C)(F)F)nc(N)nc2-c2ccc(F)cc2)cc(C(F)F)n1 [Example 162, 2-((2-amino-5-(2-(difluoromethyl)-6-methylpyridin-4-yl)-6-(4-fluorophenyl)pyrimidin-4-yl)oxy)-N-(2,2-difluoropropyl)acetamide]		21.1 nM			8.4 nM	
Cc1cc(-c2c(OCCN3CCN(C4COC4)CC3)nc(N)nc2-c2ccc(F)cc2)cc(C(F)F)n1 [Example 52, 5-(2-(difluoromethyl)-6-methylpyridin-4-yl)-4-(4-fluorophenyl)-6-(2-(4-(oxetan-3-yl)piperazin-1-yl)ethoxy)pyrimidin-2-amine]		120 nM			532 nM	
CCN(CC)C(=O)COc1nc(N)nc(-c2ccccc2)c1-c1cc(C)nc(C(F)F)c1 [Example 15, 2-((2-amino-5-(2-(difluoromethyl)-6-methylpyridin-4-yl)-6-phenylpyrimidin-4-yl)oxy)-N,N-diethylacetamide]		3.2 nM			0.5 nM and 2.1 nM	
Cc1cc(-c2c(OCCN(CCO)c3ccccn3)nc(N)nc2-c2ccc(F)cc2)cc(C(F)F)n1 [Example 153, 2-((2-((2-amino-5-(2-(difluoromethyl)-6-methylpyridin-4-yl)-6-(4-fluorophenyl)pyrimidin-4-yl)oxy)ethyl)(pyridin-2-yl)amino)ethan-1-ol]		8.9 nM			4.1 nM	
Cc1cc(-c2c(OCc3cccc(=O)n3C(C)C)nc(N)nc2-c2ccc(F)cc2)cc(C(F)F)n1 [Example 186, 6-(((2-amino-5-(2-(difluoromethyl)-6-methylpyridin-4-yl)-6-(4-fluorophenyl)pyrimidin-4-yl)oxy)methyl)-1-isopropylpyridin-2(1H)-one]	10500 nM	2.6 nM			4.1 nM	
Cc1cc(-c2c(OCCN(C)c3ccc(C#N)cn3)nc(N)nc2-c2ccc(F)cc2)cc(C(F)F)n1 [Example 156, 6-((2-((2-amino-5-(2-(difluoromethyl)-6-methylpyridin-4-yl)-6-(4-fluorophenyl)pyrimidin-4-yl)oxy)ethyl)(methyl)amino)nicotinonitrile]		84 nM			57 nM	
Cc1cc(-c2c(OCc3nccn3C(C)C(=O)O)nc(N)nc2-c2ccc(F)cc2)cc(C(F)F)n1 (stereo not shown) [Example 205, 2-(2-(((2-amino-5-(2-(difluoromethyl)-6-methylpyridin-4-yl)-6-(4-fluorophenyl)pyrimidin-4-yl)oxy)methyl)-1H-imidazol-1-yl)propanoic acid]			29	12 nM		
CCNC(=O)Nc1ccc(CCOc2nc(N)nc(-c3ccc(F)cc3)c2-c2cc(C)nc(C(F)F)c2)cc1 [Example 67, 1-(4-(2-((2-amino-5-(2-(difluoromethyl)-6-methylpyridin-4-yl)-6-(4-fluorophenyl)pyrimidin-4-yl)oxy)ethyl)phenyl)-3-ethylurea]		27 nM			4.7 nM	
Cc1cc(-c2c(OCc3nc(C#N)cn3C(C)C)nc(N)nc2-c2ccc(F)cc2)cc(C(F)F)n1 [Example 203]			9.6	3 nM		
Cc1cc(-c2c(OCc3cnnn3C(C)C)nc(N)nc2-c2ccc(F)cc2)cc(C(F)F)n1 [Example 180, 5-(2-(difluoromethyl)-6-methylpyridin-4-yl)-4-(4-fluorophenyl)-6-((1-isopropyl-1H-1,2,3-triazol-5-yl)methoxy)pyrimidin-2-amine]		15 nM			2.5 nM	
CCn1ccnc1COc1nc(N)nc(-c2ccc(F)cc2)c1-c1cc(C)nc(C(F)F)c1 [Example 105, 5-(2-(difluoromethyl)-6-methylpyridin-4-yl)-4-((1-ethyl-1H-imidazol-2-yl)methoxy)-6-(4-fluorophenyl)pyrimidin-2-amine]	10 nM	0.17 nM and 1 nM			0.44 nM and 0.38 nM	
COCCOc1nc(N)nc(-c2ccc(F)cc2)c1-c1cc(C)nc(C(F)F)c1 [Example 48, 5-(2-(difluoromethyl)-6-methylpyridin-4-yl)-4-(4-fluorophenyl)-6-(2-methoxyethoxy)pyrimidin-2-amine]		3.7 nM			0.72 nM and 0.18 nM	
Cc1cc(-c2c(OCC(=O)NCc3ccccc3)nc(N)nc2-c2ccc(F)cc2)cc(C(F)F)n1 [Example 84]		17 nM			8.7 nM	
